This note sets out measurements from PMC7180948, “New Insights into 4-Anilinoquinazolines as Inhibitors of Cardiac Troponin I–Interacting Kinase (TNNi3K)” (Molecules, 2020).

What all share (experiment): biochemical
Parameters in all cases: KINOMEscan competition binding panel (Eurofins DiscoverX), single concentration, percent inhibition
Conditions in all cases: read-out: 15 at 1 µM % inhibition

Test [1] concerns the target T1, TYK2(JH2domain-pseudokinase) (Homo sapiens, UniProt P29597).
T1 construct: JH2domain-pseudokinase
The gist of the method: (§1)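 Binding was profiled in the KINOMEscan panel of over 400 human kinases, with each compound tested at a single concentration of 1 µM to map selectivity.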

The target in the next test is MET(Y1235D) (Homo sapiens, UniProt P08581, Y1235D). The essentials:
as §1

Another test addresses T2, MLK3 (Homo sapiens, UniProt Q16584).
T2 construct: gene MAP3K11
The gist of the method: as §1

The next test addresses T3, YSK1 (Homo sapiens, UniProt O00506).
T3 construct: gene STK25
The essentials:
as §1

In another test the target is RIOK2 (Homo sapiens, UniProt Q9BVS4). The essentials:
as §1

A further test deals with EPHA3 (Homo sapiens, UniProt P29320). The gist of the method:
as §1

Another test has as its target FLT3(ITD) (Homo sapiens, UniProt P36888, ITD). The gist of the method: as §1
Another test addresses MAP3K4 (Homo sapiens, UniProt Q9Y6R4). The essentials: as §1
In a further test the target is TNIK (Homo sapiens, UniProt Q9UKE5). The essentials:
as §1

A further test has as its target FLT3(ITD,F691L) (Homo sapiens, UniProt P36888, F691L/ITD). The gist of the method: as §1
Test [2] deals with T4, ABL1(T315I)-nonphosphorylated (Homo sapiens, UniProt P00519, T315I).
T4 construct: nonphosphorylated
The gist of the method: as §1

The next test has as its target DYRK2 (Homo sapiens, UniProt Q92630). The gist of the method:
as §1

Another test deals with T5, QSK (Homo sapiens, UniProt Q9Y2K2).
T5 construct: gene SIK3
The gist of the method:
as §1

A further test deals with WNK1 (Homo sapiens, UniProt Q9H4A3). The gist of the method:
as §1

A further test has as its target LTK (Homo sapiens, UniProt P29376). The gist of the method:
as §1

For the next test, the target named is T6, TRKB (Homo sapiens, UniProt Q16620).
T6 construct: gene NTRK2
T6 sequence (Q16620 whole entry): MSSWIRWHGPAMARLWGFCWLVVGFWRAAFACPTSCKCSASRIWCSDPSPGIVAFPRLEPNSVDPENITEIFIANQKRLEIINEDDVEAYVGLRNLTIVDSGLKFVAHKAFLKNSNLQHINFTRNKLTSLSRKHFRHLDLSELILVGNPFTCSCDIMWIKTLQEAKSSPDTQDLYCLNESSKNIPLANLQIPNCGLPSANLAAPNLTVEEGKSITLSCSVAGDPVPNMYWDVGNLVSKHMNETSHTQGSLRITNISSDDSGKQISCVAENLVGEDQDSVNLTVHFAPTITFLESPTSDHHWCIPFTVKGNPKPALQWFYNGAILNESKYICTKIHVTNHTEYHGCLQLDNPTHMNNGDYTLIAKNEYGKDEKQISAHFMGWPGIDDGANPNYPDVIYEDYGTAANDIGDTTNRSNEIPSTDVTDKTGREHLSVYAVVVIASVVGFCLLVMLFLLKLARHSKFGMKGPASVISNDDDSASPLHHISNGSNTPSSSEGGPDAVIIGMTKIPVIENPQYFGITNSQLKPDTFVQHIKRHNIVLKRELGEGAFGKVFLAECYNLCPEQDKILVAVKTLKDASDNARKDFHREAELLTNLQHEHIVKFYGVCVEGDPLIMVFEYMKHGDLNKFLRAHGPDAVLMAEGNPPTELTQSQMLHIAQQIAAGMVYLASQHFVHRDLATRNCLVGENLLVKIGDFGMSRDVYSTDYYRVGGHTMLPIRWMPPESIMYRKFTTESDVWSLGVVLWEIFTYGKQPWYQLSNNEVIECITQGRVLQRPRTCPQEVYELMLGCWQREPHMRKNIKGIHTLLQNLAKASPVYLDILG
The essentials: as §1

The next test deals with LIMK2 (Homo sapiens, UniProt P53671). The essentials:
as §1

A further test has as its target KIT(A829P) (Homo sapiens, UniProt P10721, A829P). The essentials: as §1
For the next test, the target named is T7, MINK (Homo sapiens, UniProt Q8N4C8).
T7 construct: gene MINK1
The essentials:
as §1

In the next test the target is GRK4 (Homo sapiens, UniProt P32298). The gist of the method: as §1
GRK4, sequence (P32298 whole entry): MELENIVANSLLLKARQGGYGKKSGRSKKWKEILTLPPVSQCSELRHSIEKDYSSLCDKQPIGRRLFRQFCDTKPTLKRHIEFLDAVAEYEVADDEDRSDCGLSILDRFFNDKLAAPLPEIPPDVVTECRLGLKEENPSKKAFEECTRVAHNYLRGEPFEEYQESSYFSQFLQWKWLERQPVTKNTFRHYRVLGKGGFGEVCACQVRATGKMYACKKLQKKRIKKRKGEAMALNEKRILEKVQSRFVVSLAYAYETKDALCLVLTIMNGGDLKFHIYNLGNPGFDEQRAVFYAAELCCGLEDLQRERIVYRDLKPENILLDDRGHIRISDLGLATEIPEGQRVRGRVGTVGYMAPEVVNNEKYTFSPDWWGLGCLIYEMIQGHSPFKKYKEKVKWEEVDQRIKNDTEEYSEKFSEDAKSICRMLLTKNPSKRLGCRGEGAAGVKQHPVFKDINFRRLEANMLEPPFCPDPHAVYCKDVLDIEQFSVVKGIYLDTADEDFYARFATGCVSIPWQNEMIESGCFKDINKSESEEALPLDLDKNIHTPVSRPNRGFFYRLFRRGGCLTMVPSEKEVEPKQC
The next test has as its target T8, YES (Homo sapiens, UniProt P07947).
T8 construct: gene YES1
The gist of the method:
as §1

The next test addresses MAP4K3 (Homo sapiens, UniProt Q8IVH8). The essentials: as §1
The target in test [3] is T9, JAK1(JH2domain-pseudokinase) (Homo sapiens, UniProt P23458).
T9 construct: JH2domain-pseudokinase
The essentials:
as §1

The next test deals with T10, p38-beta (Homo sapiens, UniProt Q15759).
T10 construct: gene MAPK11
The gist of the method:
as §1

Structures are written as SMILES.

RIOK2, sequence (Q9BVS4 whole entry): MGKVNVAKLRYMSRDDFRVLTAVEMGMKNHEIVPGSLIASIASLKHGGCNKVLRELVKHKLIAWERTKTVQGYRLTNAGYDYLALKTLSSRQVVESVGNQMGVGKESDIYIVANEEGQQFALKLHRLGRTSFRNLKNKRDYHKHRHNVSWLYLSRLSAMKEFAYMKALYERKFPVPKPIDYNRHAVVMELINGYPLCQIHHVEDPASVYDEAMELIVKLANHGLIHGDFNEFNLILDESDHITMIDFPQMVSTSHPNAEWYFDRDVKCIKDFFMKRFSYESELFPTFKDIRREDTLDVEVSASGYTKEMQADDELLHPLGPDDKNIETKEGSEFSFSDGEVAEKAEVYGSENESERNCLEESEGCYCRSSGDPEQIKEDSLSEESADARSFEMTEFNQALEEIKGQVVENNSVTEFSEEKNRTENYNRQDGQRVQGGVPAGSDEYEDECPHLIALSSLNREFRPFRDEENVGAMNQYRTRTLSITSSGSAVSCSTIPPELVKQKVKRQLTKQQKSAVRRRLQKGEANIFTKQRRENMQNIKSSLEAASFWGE
FLT3(ITD,F691L), sequence (P36888 564-993 F691L): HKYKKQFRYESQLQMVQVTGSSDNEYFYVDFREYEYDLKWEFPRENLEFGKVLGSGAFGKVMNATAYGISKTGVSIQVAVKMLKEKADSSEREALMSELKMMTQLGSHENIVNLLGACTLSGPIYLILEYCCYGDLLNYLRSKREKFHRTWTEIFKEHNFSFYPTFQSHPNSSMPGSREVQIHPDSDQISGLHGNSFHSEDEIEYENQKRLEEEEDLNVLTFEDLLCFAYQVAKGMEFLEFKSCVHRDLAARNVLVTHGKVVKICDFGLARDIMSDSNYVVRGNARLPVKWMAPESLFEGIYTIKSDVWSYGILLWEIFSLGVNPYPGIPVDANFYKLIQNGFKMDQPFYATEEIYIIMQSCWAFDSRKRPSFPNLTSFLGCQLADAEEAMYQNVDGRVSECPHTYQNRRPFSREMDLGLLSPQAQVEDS
EPHA3, sequence (P29320 whole entry): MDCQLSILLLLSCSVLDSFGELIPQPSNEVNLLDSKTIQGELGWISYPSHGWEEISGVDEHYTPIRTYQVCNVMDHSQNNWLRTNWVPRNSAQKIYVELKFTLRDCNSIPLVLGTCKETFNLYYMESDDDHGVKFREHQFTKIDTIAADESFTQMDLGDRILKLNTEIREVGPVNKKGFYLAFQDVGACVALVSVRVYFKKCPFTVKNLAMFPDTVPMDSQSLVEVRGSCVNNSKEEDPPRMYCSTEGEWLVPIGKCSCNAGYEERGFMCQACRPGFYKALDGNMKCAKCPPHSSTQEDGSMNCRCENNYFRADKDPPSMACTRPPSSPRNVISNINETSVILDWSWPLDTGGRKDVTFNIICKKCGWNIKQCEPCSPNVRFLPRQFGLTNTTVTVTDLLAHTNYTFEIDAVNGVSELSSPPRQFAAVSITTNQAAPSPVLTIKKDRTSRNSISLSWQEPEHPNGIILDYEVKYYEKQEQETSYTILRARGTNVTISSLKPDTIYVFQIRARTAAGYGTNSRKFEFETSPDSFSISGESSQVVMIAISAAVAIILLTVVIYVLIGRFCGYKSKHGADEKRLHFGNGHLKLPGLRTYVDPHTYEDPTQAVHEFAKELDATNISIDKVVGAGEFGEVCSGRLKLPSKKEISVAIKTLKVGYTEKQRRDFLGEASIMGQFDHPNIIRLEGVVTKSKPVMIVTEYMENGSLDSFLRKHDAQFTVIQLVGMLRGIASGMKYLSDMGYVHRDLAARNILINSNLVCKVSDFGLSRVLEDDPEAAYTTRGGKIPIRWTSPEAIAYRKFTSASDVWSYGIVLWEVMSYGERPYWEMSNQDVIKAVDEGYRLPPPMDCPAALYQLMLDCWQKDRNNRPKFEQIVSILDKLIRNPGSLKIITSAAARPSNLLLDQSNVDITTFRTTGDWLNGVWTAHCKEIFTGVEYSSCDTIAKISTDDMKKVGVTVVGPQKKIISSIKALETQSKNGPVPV
LTK, sequence (P29376 whole entry): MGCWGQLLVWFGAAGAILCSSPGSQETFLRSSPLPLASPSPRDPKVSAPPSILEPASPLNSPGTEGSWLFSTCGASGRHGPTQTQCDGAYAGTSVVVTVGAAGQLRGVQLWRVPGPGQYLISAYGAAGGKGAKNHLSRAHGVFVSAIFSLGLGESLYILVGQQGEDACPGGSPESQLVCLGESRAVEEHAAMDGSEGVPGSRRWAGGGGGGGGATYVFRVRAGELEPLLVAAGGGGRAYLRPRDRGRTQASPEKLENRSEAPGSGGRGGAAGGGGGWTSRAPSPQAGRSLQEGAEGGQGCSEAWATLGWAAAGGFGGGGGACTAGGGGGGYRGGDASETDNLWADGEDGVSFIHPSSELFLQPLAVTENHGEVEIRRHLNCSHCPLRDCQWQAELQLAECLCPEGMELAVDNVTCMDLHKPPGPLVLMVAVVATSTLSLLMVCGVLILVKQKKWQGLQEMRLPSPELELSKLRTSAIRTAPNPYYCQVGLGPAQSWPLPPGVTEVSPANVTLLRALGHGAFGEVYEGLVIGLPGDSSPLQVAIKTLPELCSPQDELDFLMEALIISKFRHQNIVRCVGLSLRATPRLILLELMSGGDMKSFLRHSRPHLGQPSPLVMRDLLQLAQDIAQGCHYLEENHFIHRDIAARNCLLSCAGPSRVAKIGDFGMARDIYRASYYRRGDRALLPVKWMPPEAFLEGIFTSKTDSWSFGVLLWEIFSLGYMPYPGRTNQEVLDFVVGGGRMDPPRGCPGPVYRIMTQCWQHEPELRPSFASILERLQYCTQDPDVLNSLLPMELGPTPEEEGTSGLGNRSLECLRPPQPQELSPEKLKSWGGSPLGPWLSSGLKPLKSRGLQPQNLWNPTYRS
T8 sequence (P07947 whole entry): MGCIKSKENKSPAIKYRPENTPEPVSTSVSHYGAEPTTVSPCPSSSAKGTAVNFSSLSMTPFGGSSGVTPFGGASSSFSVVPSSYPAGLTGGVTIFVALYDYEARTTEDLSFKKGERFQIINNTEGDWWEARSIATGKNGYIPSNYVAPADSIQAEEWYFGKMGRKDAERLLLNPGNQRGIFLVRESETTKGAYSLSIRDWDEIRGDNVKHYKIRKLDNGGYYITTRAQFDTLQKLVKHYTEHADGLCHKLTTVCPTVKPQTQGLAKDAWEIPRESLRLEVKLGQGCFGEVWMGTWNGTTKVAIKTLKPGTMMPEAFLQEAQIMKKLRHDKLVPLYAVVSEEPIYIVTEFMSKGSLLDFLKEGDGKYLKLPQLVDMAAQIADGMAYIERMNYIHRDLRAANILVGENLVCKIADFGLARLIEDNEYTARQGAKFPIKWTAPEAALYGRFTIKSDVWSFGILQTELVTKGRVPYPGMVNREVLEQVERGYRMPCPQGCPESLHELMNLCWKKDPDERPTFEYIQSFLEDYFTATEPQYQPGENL
FLT3(ITD), sequence (P36888 564-993, change not shown): as the sequence (P36888 564-993 F691L) above, with L128F counted along it

With `CNS(=O)(=O)c1ccc(N(C)C)c(Nc2nc(C)nc3cc(OC)c(OC)cc23)c1` [compound 15, 3-((6,7-dimethoxy-2-methylquinazolin-4-yl)amino)-4-(dimethylamino)-N-methylbenzenesulfonamide], the inhibition (as a rule, the relative decrease from the control value, in per cent) at 1 µM in test [1] is 0%; on MET(Y1235D), 0%; at MLK3, 0%; at YSK1, 13%; on RIOK2 it was 9%; at EPHA3, 2%. Also, the inhibition at 1 µM on FLT3(ITD) is 0%; at MAP3K4, 0%; on TNIK it was 1%; at FLT3(ITD,F691L), 0%; in test [2], 9%; at DYRK2, 0%. In addition, the inhibition at 1 µM came to 22% on QSK; 22% at WNK1; 12% on LTK; 22% at TRKB; 9% on LIMK2; 42% at KIT(A829P). Further, the inhibition at 1 µM was determined as 22% on MINK; 8% on GRK4; 0% at YES; 0% on MAP4K3; 26% in test [3]; 0% on p38-beta.
